Legend:
Type in all cases: biochemical
[1] = biological target: PI3Kγ (Homo sapiens, UniProt P48736); test: PI3K-gamma fluorescence polarization assay; conditions: 20 μM PIP2, 25 μM ATP; read-out: PI3Kγ Median IC50
Procedure: PI3K-alpha and PI3K-gamma Fluorescence Polarization Assay Protocols
The reaction buffer was 20 mM HEPES pH 7.5, 2 mM MgCl2, 0.05% CHAPS, and 0.01% βME (added fresh). The substrate solution was 40 μM PIP2 (diC8, Echelon, Salt Lake City Utah cat # P-4508, 1 mM in water) and 50 μM ATP in the reaction buffer. Nunc 384-well black polypropylene fluorescent plates were used for PI3K assays. The assay is run by putting 9.5 μl of freshly diluted enzyme in the reaction buffer per well, adding 0.5 μl of diluted drug or DMSO, and mixing. Then 10 μl of the substrate solution is added to each well to start the reaction. A final concentration of 20 μM PIP2 and 25 μM ATP in the reaction was used. Reactions were allowed to proceed for 30-60 minutes at room temperature. After 30-60 minutes, 20 μl of a solution of 10 nM TAMRA detector (Red detector probe-Echelon) and 2.5 μM of GST-murineGRP (1.5 mg/ml in 17% glycerol) was added per well to stop the reaction. The resulting solution was mixed well and allowed to stand for 90-110 minutes before reading plate. Assay Plates were read on Perkin-Elmer Envision plate readers with appropriate filters for Tamra [BODIPY-TMRI(1,3,4,5)P4]. Data obtained were used to calculate enzymatic activity and enzyme inhibition by inhibitor compounds. It is important to keep Red probe solutions dark. This procedure is adapted from Echelon Biosciences Inc procedure for their PI3-Kinase fluorescence polarization activity Assay kit Product number K-1100.

[2] = biological target: PI3Kα (Homo sapiens, UniProt P42336); test: PI3K-alpha fluorescence polarization assay; conditions: 20 μM PIP2, 25 μM ATP; read-out: PI3Kα Median IC50
Sequence of PI3Kα (P42336 whole entry, species assumed): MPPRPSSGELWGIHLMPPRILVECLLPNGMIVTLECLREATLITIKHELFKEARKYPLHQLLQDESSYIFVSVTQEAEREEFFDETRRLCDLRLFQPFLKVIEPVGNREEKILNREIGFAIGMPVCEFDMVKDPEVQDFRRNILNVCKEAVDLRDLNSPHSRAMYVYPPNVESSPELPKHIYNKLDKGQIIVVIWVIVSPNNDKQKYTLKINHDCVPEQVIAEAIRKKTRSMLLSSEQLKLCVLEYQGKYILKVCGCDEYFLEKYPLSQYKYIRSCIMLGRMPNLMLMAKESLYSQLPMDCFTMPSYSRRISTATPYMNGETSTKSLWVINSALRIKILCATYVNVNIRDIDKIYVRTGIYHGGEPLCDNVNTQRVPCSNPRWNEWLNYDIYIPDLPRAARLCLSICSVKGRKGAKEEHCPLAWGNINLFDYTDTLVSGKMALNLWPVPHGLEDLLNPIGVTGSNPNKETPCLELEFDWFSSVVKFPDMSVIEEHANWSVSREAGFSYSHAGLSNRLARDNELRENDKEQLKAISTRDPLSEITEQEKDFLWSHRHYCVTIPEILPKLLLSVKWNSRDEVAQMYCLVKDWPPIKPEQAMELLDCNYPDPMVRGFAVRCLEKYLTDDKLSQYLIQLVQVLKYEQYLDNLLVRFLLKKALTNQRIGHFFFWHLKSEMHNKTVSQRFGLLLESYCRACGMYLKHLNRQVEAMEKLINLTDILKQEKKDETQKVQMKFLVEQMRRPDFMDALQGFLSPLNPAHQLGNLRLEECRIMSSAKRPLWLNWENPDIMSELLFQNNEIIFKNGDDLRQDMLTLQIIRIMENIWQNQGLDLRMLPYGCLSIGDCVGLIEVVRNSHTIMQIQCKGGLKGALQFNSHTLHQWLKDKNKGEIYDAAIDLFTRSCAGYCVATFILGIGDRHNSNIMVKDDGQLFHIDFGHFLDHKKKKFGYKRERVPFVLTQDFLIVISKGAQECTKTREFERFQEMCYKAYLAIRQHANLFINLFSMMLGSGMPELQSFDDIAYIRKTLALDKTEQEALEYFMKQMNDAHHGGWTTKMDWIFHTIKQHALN
Sequence of PI3Kα (P27986 whole entry partner, species assumed): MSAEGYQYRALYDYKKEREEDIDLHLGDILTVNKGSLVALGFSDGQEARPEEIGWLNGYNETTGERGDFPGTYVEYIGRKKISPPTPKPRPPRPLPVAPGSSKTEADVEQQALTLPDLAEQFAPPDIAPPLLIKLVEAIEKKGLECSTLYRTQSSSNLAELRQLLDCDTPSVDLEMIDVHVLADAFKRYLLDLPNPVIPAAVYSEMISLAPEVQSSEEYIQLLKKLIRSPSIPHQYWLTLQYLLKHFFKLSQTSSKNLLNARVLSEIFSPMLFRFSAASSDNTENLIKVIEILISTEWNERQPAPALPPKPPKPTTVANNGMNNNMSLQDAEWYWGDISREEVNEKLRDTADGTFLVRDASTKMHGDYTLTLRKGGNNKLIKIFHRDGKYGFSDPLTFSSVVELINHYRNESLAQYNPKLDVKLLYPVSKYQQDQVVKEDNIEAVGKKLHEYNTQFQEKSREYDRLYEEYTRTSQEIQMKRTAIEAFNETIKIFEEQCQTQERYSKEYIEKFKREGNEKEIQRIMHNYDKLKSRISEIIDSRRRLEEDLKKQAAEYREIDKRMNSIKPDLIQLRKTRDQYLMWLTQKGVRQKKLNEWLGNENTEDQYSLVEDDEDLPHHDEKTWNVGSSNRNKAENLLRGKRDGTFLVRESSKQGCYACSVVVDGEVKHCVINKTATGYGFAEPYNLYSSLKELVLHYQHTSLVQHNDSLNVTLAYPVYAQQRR

[3] = biological target: T1, mTOR Kinase (FLAG-TOR) (Homo sapiens, UniProt P42345); test: mTOR kinase assay, purified enzyme, DELFIA format; conditions: 100 μM ATP, 1.25 μM His6-S6K; read-out: mTOR Kinase Median IC50
T1 construct: FLAG

Sequence of PI3Kγ (P48736 whole entry, species assumed): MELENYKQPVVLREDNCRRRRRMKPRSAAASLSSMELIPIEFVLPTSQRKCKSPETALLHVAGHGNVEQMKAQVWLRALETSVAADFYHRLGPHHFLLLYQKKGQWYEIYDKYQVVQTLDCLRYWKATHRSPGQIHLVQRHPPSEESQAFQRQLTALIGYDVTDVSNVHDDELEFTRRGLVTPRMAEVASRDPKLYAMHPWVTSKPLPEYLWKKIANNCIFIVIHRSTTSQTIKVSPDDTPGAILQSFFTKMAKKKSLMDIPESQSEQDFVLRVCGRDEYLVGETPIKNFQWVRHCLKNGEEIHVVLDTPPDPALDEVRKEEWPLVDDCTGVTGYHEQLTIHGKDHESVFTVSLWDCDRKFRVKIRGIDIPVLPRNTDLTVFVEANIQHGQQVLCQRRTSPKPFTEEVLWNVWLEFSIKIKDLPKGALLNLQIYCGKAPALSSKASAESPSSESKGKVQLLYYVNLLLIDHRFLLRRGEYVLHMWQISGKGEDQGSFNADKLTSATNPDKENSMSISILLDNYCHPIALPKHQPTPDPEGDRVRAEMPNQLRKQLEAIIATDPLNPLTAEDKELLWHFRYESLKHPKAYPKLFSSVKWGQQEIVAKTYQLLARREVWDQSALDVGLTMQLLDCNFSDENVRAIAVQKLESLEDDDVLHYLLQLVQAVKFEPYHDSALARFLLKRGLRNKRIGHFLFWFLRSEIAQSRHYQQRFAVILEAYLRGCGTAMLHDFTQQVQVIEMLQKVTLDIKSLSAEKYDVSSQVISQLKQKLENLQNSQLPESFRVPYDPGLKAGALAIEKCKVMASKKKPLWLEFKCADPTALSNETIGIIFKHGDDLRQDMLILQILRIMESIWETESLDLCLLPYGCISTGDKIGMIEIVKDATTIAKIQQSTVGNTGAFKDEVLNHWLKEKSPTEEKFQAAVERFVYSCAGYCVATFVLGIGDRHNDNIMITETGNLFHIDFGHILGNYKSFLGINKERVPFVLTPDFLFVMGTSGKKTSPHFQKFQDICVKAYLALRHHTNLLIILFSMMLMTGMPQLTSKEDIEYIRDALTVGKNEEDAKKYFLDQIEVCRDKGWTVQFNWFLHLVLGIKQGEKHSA

Compound | IC50 [1] | IC50 [2] | IC50 [3]
CCn1ccc2c(N3CCOCC3)nc(-c3ccc(NC(=O)Nc4ccc(C(=O)N5CCSCC5)cc4)cc3)nc21 [Compound 71, 1-[4-(7-ethyl-4-morpholin-4-yl-7H-pyrrolo[2,3-d]pyrimidin-2-yl)phenyl]-3-[4-(thiomorpholin-4-ylcarbonyl)phenyl]urea] | 39 nM | 3.5 nM | 4.2 nM
CC(C)N1CCN(C(=O)c2ccc(NC(=O)Nc3ccc(-c4nc(N5CCOCC5)c5ccn(C(C)C)c5n4)cc3)cc2)CC1 [Compound 93, 1-{4-[7-(1-methylethyl)-4-morpholin-4-yl-7H-pyrrolo[2,3-d]pyrimidin-2-yl]phenyl}-3-(4-{[4-(1-methylethyl)piperazin-1-yl]carbonyl}phenyl)urea] | 82 nM | 12 nM | 0.94 nM
CNc1nc2cc(-c3nc(N4CCOCC4)c4ccn(CC(F)(F)F)c4n3)ccc2[nH]1 [Compound 48, N-methyl-5-[4-morpholin-4-yl-7-(2,2,2-trifluoroethyl)-7H-pyrrolo[2,3-d]pyrimidin-2-yl]-1H-benzimidazol-2-amine] | 3660 nM | 1200 nM | 340 nM
CC(C)(C)OC(=O)N1CCC(n2ccc3c(N4CCOCC4)nc(-c4ccc(NC(=O)Nc5cccnc5)cc4)nc32)CC1 [Compound 94, tert-butyl 4-(4-morpholin-4-yl-2-{4-[(pyridin-3-ylcarbamoyl)amino]phenyl}-7H-pyrrolo[2,3-d]pyrimidin-7-yl)piperidine-1-carboxylate] | > 10000 nM | 11000 nM | 1350 nM
O=C(Nc1ccc(-c2nc(N3CCOCC3)c3cc[nH]c3n2)cc1)Nc1cccnc1 [Compound 5, 1-[4-(4-morpholin-4-yl-7H-pyrrolo[2,3-d]pyrimidin-2-yl)phenyl]-3-pyridin-3-ylurea] | 78 nM | 15 nM | 1.7 nM
CCn1ccc2c(N3CCOCC3)nc(-c3ccc(NC(=O)Nc4ccc(C(=O)NCCOC)cc4)cc3)nc21 [Compound 78, 4-({[4-(7-ethyl-4-morpholin-4-yl-7H-pyrrolo[2,3-d]pyrimidin-2-yl)phenyl]carbamoyl}amino)-N-(2-methoxyethyl)benzamide] | 118 nM | 9.5 nM | 1.15 nM
CN(C)CCCNC(=O)Nc1ccc(-c2nc(N3CCOCC3)c3ccn(CCN(C)C)c3n2)cc1 [Compound 15, 1-(4-{7-[2-(dimethylamino)ethyl]-4-morpholin-4-yl-7H-pyrrolo[2,3-d]pyrimidin-2-yl}phenyl)-3-[3-(dimethylamino)propyl]urea] | 4360 nM | 162 nM | 3400 nM
CN(C)CCOc1ccc(NC(=O)Nc2ccc(-c3nc(N4CCOCC4)c4ccn(CC(F)(F)F)c4n3)cc2)cc1 [Compound 58, 1-{4-[2-(dimethylamino)ethoxy]phenyl}-3-{4-[4-morpholin-4-yl-7-(2,2,2-trifluoroethyl)-7H-pyrrolo[2,3-d]pyrimidin-2-yl]phenyl}urea] | 11 nM | 2 nM | 4.5 nM
CCn1ccc2c(N3CCOCC3)nc(-c3ccc(NC(=O)Nc4ccc(C(=O)N5C[C@@H](C)N[C@@H](C)C5)cc4)cc3)nc21 [Compound 64, 1-(4-{[(3R,5S)-3,5-dimethylpiperazin-1-yl]carbonyl}phenyl)-3-[4-(7-ethyl-4-morpholin-4-yl-7H-pyrrolo[2,3-d]pyrimidin-2-yl)phenyl]urea] | 13 nM | < 1.7 nM | 1.8 nM
CNCCn1ccc2c(N3CCOCC3)nc(-c3ccc(NC(=O)Nc4ccncc4)cc3)nc21 [Compound 33, 1-(4-{7-[2-(methylamino)ethyl]-4-morpholin-4-yl-7H-pyrrolo[2,3-d]pyrimidin-2-yl}phenyl)-3-pyridin-4-ylurea] | 100 nM | 12 nM | 5.3 nM
CC(C)n1ccc2c(N3CCOCC3)nc(-c3ccc(NC(=O)Nc4ccc(C(=O)O)cc4)cc3)nc21 [Compound 90, 4-({[4-(7-isopropyl-4-morpholin-4-yl-7H-pyrrolo[2,3-d]pyrimidin-2-yl)phenyl]carbamoyl}amino)benzoic acid] | 151 nM | 25.7 nM | 0.81 nM
CCn1ccc2c(N3CCOCC3)nc(-c3ccc(NC(=O)Nc4ccc(C(=O)N5CCN(c6ccccn6)CC5)cc4)cc3)nc21 [Compound 75, 1-[4-(7-ethyl-4-morpholin-4-yl-7H-pyrrolo[2,3-d]pyrimidin-2-yl)phenyl]-3-{4-[(4-pyridin-2-ylpiperazin-1-yl)carbonyl]phenyl}urea] | 36 nM | 8 nM | 5.65 nM
CC(C)NCCn1ccc2c(N3CCOCC3)nc(-c3ccc(NC(=O)Nc4ccncc4)cc3)nc21 [Compound 32, 1-(4-{7-[2-(isopropylamino)ethyl]-4-morpholin-4-yl-7H-pyrrolo[2,3-d]pyrimidin-2-yl}phenyl)-3-pyridin-4-ylurea] | 245 nM | 37 nM | 23 nM
CCn1ccc2c(N3CCOCC3)nc(-c3ccc(NC(=O)Nc4ccc(C(=O)O)cc4)cc3)nc21 [Compound 60, 4-({[4-(7-ethyl-4-morpholin-4-yl-7H-pyrrolo[2,3-d]pyrimidin-2-yl)phenyl]carbamoyl}amino)benzoic acid] | 120 nM | 14.5 nM | 0.86 nM
CCn1ccc2c(N3CCOCC3)nc(-c3ccc(NC(=O)Nc4ccc(C(=O)N5CCOCC5)cc4)cc3)nc21 [Compound 66, 1-[4-(7-ethyl-4-morpholin-4-yl-7H-pyrrolo[2,3-d]pyrimidin-2-yl)phenyl]-3-[4-(morpholin-4-ylcarbonyl)phenyl]urea] | 30 nM | 3.5 nM | 2.4 nM
CC(C)n1ccc2c(N3CCOCC3)nc(-c3ccc(NC(=O)Nc4ccc(C(=O)N(C)CCN(C)C)cc4)cc3)nc21 [Compound 85, N-[2-(dimethylamino)ethyl]-4-({[4-(7-isopropyl-4-morpholin-4-yl-7H-pyrrolo[2,3-d]pyrimidin-2-yl)phenyl]carbamoyl}amino)-N-methylbenzamide] | 34 nM | < 1.8 nM | 0.61 nM
O=C(Nc1ccc(-c2nc(N3CCOCC3)c3ccn(CC(F)(F)F)c3n2)cc1)Nc1cccnc1 [Compound 37, 1-{4-[4-morpholin-4-yl-7-(2,2,2-trifluoroethyl)-7H-pyrrolo[2,3-d]pyrimidin-2-yl]phenyl}-3-pyridin-3-ylurea] | 97 nM | 26 nM | 1.09 nM
CCN1CCN(C(=O)c2ccc(NC(=O)Nc3ccc(-c4nc(N5CCOCC5)c5ccn(CC)c5n4)cc3)cc2)CC1 [Compound 70, 1-[4-(7-ethyl-4-morpholin-4-yl-7H-pyrrolo[2,3-d]pyrimidin-2-yl)phenyl]-3-{4-[(4-ethylpiperazin-1-yl)carbonyl]phenyl}urea] | 21 nM | 2.5 nM | 1.5 nM
c1cc(-c2nc(N3CCOCC3)c3cc[nH]c3n2)c2cn[nH]c2c1 [Compound 3, 2-(1H-indazol-4-yl)-4-morpholin-4-yl-7H-pyrrolo[2,3-d]pyrimidine] | 10800 nM | 830 nM | 1200 nM
CCn1ccc2c(N3CCOCC3)nc(-c3ccc(NC(=O)Nc4ccc(C(=O)N5CCC(N6CCCC6)CC5)cc4)cc3)nc21 [Compound 69, 1-[4-(7-ethyl-4-morpholin-4-yl-7H-pyrrolo[2,3-d]pyrimidin-2-yl)phenyl]-3-{4-[(4-pyrrolidin-1-ylpiperidin-1-yl)carbonyl]phenyl}urea] | 24 nM | 2.1 nM | 0.8 nM
O=C(Nc1ccc(-c2nc(N3CCOCC3)c3ccn(CC(F)(F)F)c3n2)cc1)OCCO [Compound 43, 2-hydroxyethyl{4-[4-morpholin-4-yl-7-(2,2,2-trifluoroethyl)-7H-pyrrolo[2,3-d]pyrimidin-2-yl]phenyl}carbamate] | 1720 nM | 570 nM | 3.9 nM
CCOC(=O)Nc1nc2cc(-c3nc(N4CCOCC4)c4ccn(CC(F)(F)F)c4n3)ccc2[nH]1 [Compound 49, ethyl {5-[4-morpholin-4-yl-7-(2,2,2-trifluoroethyl)-7H-pyrrolo[2,3-d]pyrimidin-2-yl]-1H-benzimidazol-2-yl}carbamate] | 210 nM | 1840 nM | 1450 nM
CN(C)CCNC(=O)Nc1ccc(-c2nc(N3CCOCC3)c3ccn(CC(F)(F)F)c3n2)cc1 [Compound 41, 1-[2-(dimethylamino)ethyl]-3-{4-[4-morpholin-4-yl-7-(2,2,2-trifluoroethyl)-7H-pyrrolo[2,3-d]pyrimidin-2-yl]phenyl}urea] | 664 nM | 154 nM | 110 nM
CN(C)CCNC(=O)Nc1ccc(-c2nc(N3CCOCC3)c3ccn(CCN(C)C)c3n2)cc1 [Compound 14, 1-[2-(dimethylamino)ethyl]-3-(4-{7-[2-(dimethylamino)ethyl]-4-morpholin-4-yl-7H-pyrrolo[2,3-d]pyrimidin-2-yl}phenyl)urea] | 554 nM | 78 nM | 2150 nM

From US20100003250A1, “(2-ARYL-7H-PYRROLO[2,3-D]PYRIMIDIN-4-YL)MORPHOLINE COMPOUNDS, THEIR USE AS MTOR KINASE AND PI3 KINASE INHIBITORS, AND THEIR SYNTHESES” (Wyeth, priority 2008, published 2010)
